Laboratory results: patent US10722516B2, “Use of landiolol hydrochloride in the long-term treatment of tachyarrhythmias” (AOP Orphan Pharmaceuticals AG, priority 2013, dated 2020)
“Also recorded” adds a separate entry of the source. Structures can show the parent of a compound that is named as a salt.

Test system: healthy volunteers
Assay: 24 h long-term infusion study, AOP LDLL600 against esmolol: heart rate
Type: in vivo, human
Settings: for heart rate: Table 1
Procedure: A single centre prospective, randomized, double blind, crossover, pharmacokinetic, safety and tolerability study to compare long-term infusion administration of AOP LDLL600 against esmolol in healthy volunteers was performed.
Landiolol hydrochloride lyophilized (LDLL600) comprises 600 mg landiolol hydrochloride, 600 mg mannitol, pH 6.5. The primary packing of LDLL600 is 50 ml vial, the reconstitution volume is 50 ml and the final product concentration is 12 mg/mL landiolol HCl.
12 subjects were administered AOP LDLL600 or Esmolol (Brevibloc, 2500 mg/250 ml) in 1:1 ratio in double-blind, randomized, cross-over setting. PK, systemic cardiovascular and local tolerability and safety of the 24 h-long term infusions of three dose levels of both IMPs during each treatment period were assessed.
Landiolol was infused over 24 h in a dose of 10 μg/KG/min (2 hrs), followed by 20 μg/KG/min (2 hrs), followed by 40 μg/KG/min for 20 hrs.
Dosing algorithm was body weight divided by 20, 10 and 5 in ml/h giving 10, 20 and 40 μg/KG/min at a concentration of 12 mg/ml. No severe adverse drug reactions, mild local reactions, 1 severe local reaction (Esmolol High Dose).
Landiolol was infused over 24 h in a dose of 10, 20 and 40 μg/KG/min, i.e. 10 μg/KG/min landiolol were administered for 2 hrs, followed by 2 hrs administration of 20 μg/KG/min and further followed by 20 hrs administration of 40 μg/KG/min.
Post-infusion follow up measurements were performed immediately after 20 hrs administration study, i.e. 2, 4 min etc. after stop of landiolol administration.

[1] = LD infusion (landiolol 10, esmolol 50 μg/kg/min), 3 min
[2] = LD infusion (landiolol 10, esmolol 50 μg/kg/min), 4 min
[3] = LD infusion (landiolol 10, esmolol 50 μg/kg/min), 6 min
[4] = LD infusion (landiolol 10, esmolol 50 μg/kg/min), 8 min
[5] = LD infusion (landiolol 10, esmolol 50 μg/kg/min), 12 min
[6] = LD infusion (landiolol 10, esmolol 50 μg/kg/min), 16 min
[7] = LD infusion (landiolol 10, esmolol 50 μg/kg/min), 20 min
[8] = LD infusion (landiolol 10, esmolol 50 μg/kg/min), 30 min
[9] = LD infusion (landiolol 10, esmolol 50 μg/kg/min), 60 min
[10] = LD infusion (landiolol 10, esmolol 50 μg/kg/min), 90 min
[11] = LD infusion (landiolol 10, esmolol 50 μg/kg/min), 2 h
[12] = MD infusion (landiolol 20, esmolol 100 μg/kg/min, after 2 h LD), 2 min
[13] = MD infusion (landiolol 20, esmolol 100 μg/kg/min, after 2 h LD), 3 min
[14] = MD infusion (landiolol 20, esmolol 100 μg/kg/min, after 2 h LD), 4 min
[15] = MD infusion (landiolol 20, esmolol 100 μg/kg/min, after 2 h LD), 6 min
[16] = MD infusion (landiolol 20, esmolol 100 μg/kg/min, after 2 h LD), 8 min
[17] = MD infusion (landiolol 20, esmolol 100 μg/kg/min, after 2 h LD), 12 min
[18] = MD infusion (landiolol 20, esmolol 100 μg/kg/min, after 2 h LD), 16 min
[19] = MD infusion (landiolol 20, esmolol 100 μg/kg/min, after 2 h LD), 20 min
[20] = MD infusion (landiolol 20, esmolol 100 μg/kg/min, after 2 h LD), 30 min
[21] = MD infusion (landiolol 20, esmolol 100 μg/kg/min, after 2 h LD), 60 min
[22] = MD infusion (landiolol 20, esmolol 100 μg/kg/min, after 2 h LD), 90 min
[23] = MD infusion (landiolol 20, esmolol 100 μg/kg/min, after 2 h LD), 2 h

Compound: CC1(C)OC[C@@H](COC(=O)CCc2ccc(OC[C@@H](O)CNCCNC(=O)N3CCOCC3)cc2)O1 [Landiolol, (−)-[(S)-2,2-dimethyl-1,3-dioxolan-4-yl]methyl 3-[4-[(S)-2-hydroxy-3-(2-morpholinocarbonylamino)ethylamino]propoxy]phenylpropionate monohydrochloride]
- heart rate, Mean (SD) (LD infusion (landiolol 10, esmolol 50 μg/kg/min), 2 min): 65.6 (5.09) beats per minute
- change of heart rate from predose, Mean (SD) [1]: −2.5 (7.48) beats per minute
- heart rate, Mean (SD) [1]: 64.8 (6.82) beats per minute
- change of heart rate from predose, Mean (SD) [2]: −2.8 (6.38) beats per minute
- heart rate, Mean (SD) [2]: 64.6 (6.97) beats per minute
- change of heart rate from predose, Mean (SD) [3]: −1.7 (7.97) beats per minute
- heart rate, Mean (SD) [3]: 65.7 (8.78) beats per minute
- change of heart rate from predose, Mean (SD) [4]: −3.6 (9.07) beats per minute
- heart rate, Mean (SD) [4]: 63.8 (6.57) beats per minute
- change of heart rate from predose, Mean (SD) [5]: −4.7 (10.99) beats per minute
- heart rate, Mean (SD) [5]: 62.7 (7.71) beats per minute
- change of heart rate from predose, Mean (SD) [6]: −7.1 (5.32) beats per minute
- heart rate, Mean (SD) [6]: 60.3 (6.72) beats per minute
- change of heart rate from predose, Mean (SD) [7]: −7.3 (10.51) beats per minute
- heart rate, Mean (SD) [7]: 60.0 (6.05) beats per minute
- change of heart rate from predose, Mean (SD) [8]: −7.8 (12.55) beats per minute
- heart rate, Mean (SD) [8]: 59.5 (8.55) beats per minute
- change of heart rate from predose, Mean (SD) [9]: −9.6 (11.89) beats per minute
- heart rate, Mean (SD) [9]: 57.8 (8.05) beats per minute
- change of heart rate from predose, Mean (SD) [10]: −9.3 (11.33) beats per minute
- heart rate, Mean (SD) [10]: 58.1 (7.14) beats per minute
- change of heart rate from predose, Mean (SD) [11]: −11.2 (11.75) beats per minute
- heart rate, Mean (SD) [11]: 56.2 (5.89) beats per minute
- change of heart rate from predose, Mean (SD) (MD Predose (end of 2 h LD)): −11.2 (11.75) beats per minute
- heart rate, Mean (SD) (MD Predose (end of 2 h LD)): 56.2 (5.89) beats per minute
- change of heart rate from predose, Mean (SD) [12]: −11.1 (10.73) beats per minute
- heart rate, Mean (SD) [12]: 56.3 (6.48) beats per minute
- change of heart rate from predose, Mean (SD) [13]: −9.8 (7.90) beats per minute
- heart rate, Mean (SD) [13]: 57.6 (5.02) beats per minute
- change of heart rate from predose, Mean (SD) [14]: −10.9 (9.26) beats per minute
- heart rate, Mean (SD) [14]: 56.4 (6.87) beats per minute
- change of heart rate from predose, Mean (SD) [15]: −11.2 (11.10) beats per minute
- heart rate, Mean (SD) [15]: 56.2 (7.86) beats per minute
- change of heart rate from predose, Mean (SD) [16]: −9.7 (10.96) beats per minute
- heart rate, Mean (SD) [16]: 57.7 (7.24) beats per minute
- change of heart rate from predose, Mean (SD) [17]: −12.8 (10.17) beats per minute
- heart rate, Mean (SD) [17]: 54.5 (6.07) beats per minute
- change of heart rate from predose, Mean (SD) [18]: −10.4 (11.42) beats per minute
- heart rate, Mean (SD) [18]: 56.9 (6.88) beats per minute
- change of heart rate from predose, Mean (SD) [19]: −12.8 (10.52) beats per minute
- heart rate, Mean (SD) [19]: 54.5 (6.86) beats per minute
- change of heart rate from predose, Mean (SD) [20]: −9.0 (11.92) beats per minute
- heart rate, Mean (SD) [20]: 58.3 (8.53) beats per minute
- change of heart rate from predose, Mean (SD) [21]: −11.3 (9.86) beats per minute
- heart rate, Mean (SD) [21]: 56.0 (5.17) beats per minute
- change of heart rate from predose, Mean (SD) [22]: −10.2 (10.81) beats per minute
- heart rate, Mean (SD) [22]: 57.2 (6.79) beats per minute
- change of heart rate from predose, Mean (SD) [23]: −11.3 (9.41) beats per minute
- heart rate, Mean (SD) [23]: 56.1 (7.38) beats per minute
- heart rate, Mean (SD) (Predose (before first IMP administration)): 67.3 (8.18) beats per minute
- heart rate (Control (before administration)): 67.8 beats per minute
- heart rate (high dose (landiolol 40, esmolol 200 μg/kg/min), time 720 min): 57.5 beats per minute
- heart rate (high dose (landiolol 40, esmolol 200 μg/kg/min), time 1200 min): 53.6 beats per minute
- heart rate (low dose (landiolol 10, esmolol 50 μg/kg/min), time 12 min): 62.7 beats per minute
- heart rate (low dose (landiolol 10, esmolol 50 μg/kg/min), time 16 min): 60.3 beats per minute
- heart rate (low dose (landiolol 10, esmolol 50 μg/kg/min), time 30 min): 59.5 beats per minute
- heart rate (low dose (landiolol 10, esmolol 50 μg/kg/min), time 60 min): 57.8 beats per minute
- heart rate (low dose (landiolol 10, esmolol 50 μg/kg/min), time 120 min): 56.2 beats per minute
- heart rate (medium dose (landiolol 20, esmolol 100 μg/kg/min), time 240 min): 56.1 beats per minute
- heart rate (time after administration 12 min (end at 1440 min)): 63.5 beats per minute
- heart rate (time after administration 16 min): 67 beats per minute
- heart rate (time after administration 30 min): 70 beats per minute
- heart rate (time after administration 60 min): 69.2 beats per minute
- heart rate (time after administration 120 min): 66.8 beats per minute
- overshoot effect on heart rate (after termination of long term administration, listed as landiolol-hydrochloride, monohydrochloride): avoiding any overshoot effect; also recorded: no significant overshoot effect occurs
- tolerance effect (long term administration): without showing any tolerance effects
- heart rate effect during administration (long term administration, listed as landiolol-hydrochloride, monohydrochloride): persistent reduction of heart rate; also recorded: significantly lower than the heart rate and/or blood pressure values achieved under esmolol long-term treatment
